Test [1] relates to HCC1954 cells (with PI3Kα H1047R mutation). The test can be described thus: In vitro inhibition of HCC1954 cell proliferation (CellTiter-Lumi). The test is classed as cell-based. Conditions: Homo sapiens, HCC1954, 144 h, HCC1954 cells, 144 h, CellTiter-Lumi. The procedure: Assay for In Vitro Inhibition of HCC1954 Cell Proliferation by Compounds of the Present Disclosure
The growth of the cells was evaluated, and the IC50 for the inhibition of cell growth by the compounds was calculated.

Test [2] relates to MCF-7 cells (with PI3Kα E545K mutation). Nature of the test: In vitro inhibition of MCF-7 cell proliferation (CellTiter-Lumi). In kind it is cell-based. As to conditions: Homo sapiens, MCF7, 144 h. The procedure:
Biological Example 3. Assay for In Vitro Inhibition of MCF-7 Cell Proliferation by Compounds of the Present Disclosure
MCF-7 cells (with PI3Kα E545K mutation) were seeded into a 384-well plate (Fisher 142762) at 2000 cells per well. The next day, serially diluted compounds were added, and 144 h after the addition, CellTiter-Lumi (Beyotime C0068XL) was added to measure the ATP content in the cells. The growth of the cells was evaluated, and the IC50 for the inhibition of cell growth by the compounds was calculated.

[3] abbreviates: class symbols, read-out: Inhibitory activity against HCC1954 cells (IC50), class symbols.
Setting [4] is: class symbols, read-out: Inhibitory activity against MCF-7 cells (IC50), class symbols.
[5] abbreviates: numeric values, read-out: Inhibitory activity against HCC1954 cells (IC50).
[6] abbreviates: numeric values, read-out: Inhibitory activity against MCF-7 cells (IC50).

Read-outs that look alike come from different tables or passages of the source.

Usually IC50 stands for the concentration that inhibits the measured activity by half. Take `CC(C)(C=C(C#N)C(=O)Nc1ccc(N2CC(N3CCN(c4ccc5c(c4)-c4nc(N6C(=O)OC[C@H]6C(F)F)cn4CCO5)CC3)C2)cc1Cl)N1CCC1` [Compound 363]: the IC50 in test [1] (setting [3]) and in test [2] (setting [4]) was < 0.05 µM in each case.

For the molecule `C=CC(=O)Nc1ccc(N2CC(N3CCN(c4cc5c(cc4OC)OCCn4cc(N6C(=O)OC[C@H]6C(F)F)nc4-5)CC3)C2)cc1` [Compound 98], the values for the IC50 in test [1] (setting [5]) and in test [2] (setting [6]) were 0.059 µM and 0.0067 µM, respectively.

For `C=CC(=O)Nc1ccc(N2CC(N3CCN(c4ccc5c(c4)-c4nc(N6C(=O)OC[C@H]6C)cn4CCO5)CC3)C2)cn1` [Compound 147], the concentration for half-maximal inhibition (IC50) amounted to 0.029 µM in test [1] (setting [5]) and 0.0015 µM in test [2] (setting [6]).

For `C=CC(=O)N1CCN(CCC(=O)N2CCN(c3ccc4c(c3)-c3nc(N5C(=O)OC[C@H]5C(F)F)cn3CCO4)CC2)CC1` [Compound 13], the IC50 turned out to be 0.862 µM in test [1] (setting [5]) and 0.04 µM in test [2] (setting [6]).

`CC(C)(C)C=C(C#N)C(=O)Nc1ccc(N2CC(N3CCN(c4ccc5c(c4)-c4nc(N6C(=O)OC[C@H]6C(F)F)c(C6CC6)n4CCO5)CC3)C2)cc1` [Compound 322]: the half-inhibitory concentration (IC50) in test [1] (setting [3]) and in test [2] (setting [4]) was < 0.05 µM throughout.

Take `CC(=O)NC(C)(C)C=C(C#N)C(=O)Nc1ccc(N2CC(N3CCN(c4ccc5c(c4)-c4nc(N6C(=O)OC[C@H]6C(F)F)cn4CCO5)CC3)C2)cc1` [Compound 325]: the IC50 in test [1] (setting [3]) and in test [2] (setting [4]) was < 0.05 µM in each case.

As for `C=CC(=O)N1CCc2cc(N3CC(N4CCN(c5ccc6c(c5)-c5nc(N7C(=O)OC[C@H]7C(F)F)cn5CCO6)CC4)C3)c(F)cc21` [Compound 177], the IC50 in test [1] (setting [5]) was 0.0022 µM; in test [2] (setting [6]), 0.0001 µM.

As to `CNCC#CC(=O)Nc1ccc(N2CC(N3CCN(c4ccc5c(c4)-c4nc(N6C(=O)OC[C@H]6C(F)F)cn4CCO5)CC3)C2)cc1` [Compound 185], the IC50 in test [1] (setting [3]) and in test [2] (setting [4]) was < 0.05 µM each time.

In the case of `C=CC(=O)Nc1ccc(N2CC(N3CCN(c4ccc5c(c4)-c4nc(N6C(=O)CC[C@H]6C(F)F)cn4CCO5)CC3)C2)cc1` [Compound 178], the IC50 in test [1] (setting [3]) and in test [2] (setting [4]) was < 0.05 µM throughout.

As for `C=CC(=O)N1CCc2cc(N3CCN(c4ccc5c(c4)-c4nc(N6C(=O)OC[C@H]6C(F)F)cn4CCO5)CC3)ccc2C1` [Compound 206], the IC50 in test [1] (setting [3]) was 0.05 to 0.1 µM; in test [2] (setting [4]), < 0.05 µM.

Consider `C=CC(=O)Nc1ccc(N2CC[C@@H](CN3CCN(c4ccc5c(c4)-c4nc(N6C(=O)OC[C@H]6C(F)F)cn4CCO5)CC3)C2)cc1` [Compound 85], for which the IC50 in test [1] (setting [5]) stood at 0.303 µM; in test [2] (setting [6]), 0.088 µM.

For `N#CC(=CC1CC1)C(=O)Nc1ccc(N2CC(N3CCN(c4ccc5c(c4)-c4nc(N6C(=O)OC[C@H]6C(F)F)cn4CCO5)CC3)C2)c(F)c1` [Compound 227], the IC50 in test [1] (setting [3]) and in test [2] (setting [4]) was < 0.05 µM throughout.

Regarding `C=CC(=O)Nc1ccc(N2CCN(c3ccc(-c4ccc5c(c4)-c4nc(N6C(=O)OC[C@H]6C(F)F)cn4CCO5)cc3)CC2)cc1` [Compound 196], the IC50 in test [1] (setting [3]) and in test [2] (setting [4]) was > 1 µM each time.

As for `C=CC(=O)Nc1ccc(CCC(=O)N2CCN(c3ccc4c(c3)-c3nc(N5C(=O)OC[C@H]5C(F)F)cn3CCO4)CC2)cc1` [Compound 11], the IC50 was determined as 0.298 µM in test [1] (setting [5]) and 0.058 µM in test [2] (setting [6]).

As for `C=CC(=O)N1CC(N2CCC(N3CCN(c4ccc5c(c4)-c4nc(N6C(=O)OC[C@H]6C(F)F)cn4CCO5)CC3)C2)C1` (some centres unmarked) [Compound 90], the IC50 in test [1] (setting [5]) is 0.225 µM; in test [2] (setting [6]), 0.012 µM.

As for `CN(C1COC1)C(C)(C)C=C(C#N)C(=O)Nc1ccc(N2CC(N3CCN(c4ccc5c(c4)-c4nc(N6C(=O)OC[C@H]6C(F)F)cn4CCO5)CC3)C2)nn1` [Compound 295], the IC50 in test [1] (setting [3]) and in test [2] (setting [4]) was < 0.05 µM each time.

Consider `C=CC(=O)N1CCc2c1ccc(N1CC(N3CCN(c4ccc5c(c4)-c4nc(N6C(=O)OC[C@H]6C(F)F)cn4CCO5)CC3)C1)c2F` [Compound 166], for which the IC50 came out at 0.0094 µM in test [1] (setting [5]) and 0.0012 µM in test [2] (setting [6]).

Consider `C=C(F)C(=O)Nc1ccc(N2CC(N3CCN(c4ccc5c(c4)-c4nc(N6C(=O)OC[C@H]6C(F)F)cn4CCO5)CC3)C2)cc1` [Compound 99], for which the IC50 turned out to be 0.053 µM in test [1] (setting [5]) and 0.011 µM in test [2] (setting [6]).

Consider `N#C/C(=C\CN)C(=O)Nc1ccc(N2CC(N3CCN(c4ccc5c(c4)-c4nc(N6C(=O)OC[C@H]6C(F)F)cn4CCO5)CC3)C2)cc1` [Compound 184], for which the IC50 in test [1] (setting [3]) and in test [2] (setting [4]) was < 0.05 µM throughout.

Consider `CC(C)(C=C(C#N)C(=O)Nc1ccc(N2CC(N3CCN(c4ccc5c(c4)-c4nc(N6C(=O)OC[C@H]6C(F)F)cn4CCO5)CC3)C2)cc1)N1CCOCC1` [Compound 138], for which the IC50 was 0.109 µM in test [1] (setting [5]) and 0.035 µM in test [2] (setting [6]).

Regarding `C=CC(=O)N1CCN(CCCCN2CCN(c3ccc4c(c3)-c3nc(N5C(=O)OC[C@H]5C(F)F)cn3CCO4)CC2)CC1` [Compound 26], the half-maximal inhibitory concentration (IC50) in test [1] (setting [5]) was found to be 0.248 µM; in test [2] (setting [6]), 0.083 µM.

As to `C=CC(=O)Nc1ccc(N2CCC(C#Cc3ccc4c(c3)-c3nc(N5C(=O)OC[C@H]5C(F)F)cn3CCO4)CC2)cc1` [Compound 202], the IC50 in test [1] (setting [3]) is 0.05 to 0.1 µM; in test [2] (setting [4]), < 0.05 µM.

On to `CCC(N)(C=C(C#N)C(=O)Nc1ccc(N2CC(N3CCN(c4ccc5c(c4)-c4nc(N6C(=O)OC[C@H]6C(F)F)cn4CCO5)CC3)C2)cc1)CC` [Compound 395], for which the IC50 in test [1] (setting [3]) and in test [2] (setting [4]) was < 0.05 µM each time.

For `CC(C)(C=C(C#N)C(=O)Nc1ccc(N2CC(N3CCN(c4ccc5c(c4)-c4nc(N6C(=O)OC[C@H]6C(F)F)cn4CCO5)CC3)C2)cc1)NC1(C)COC1` [Compound 380], the IC50 in test [1] (setting [3]) and in test [2] (setting [4]) was < 0.05 µM each time.

For the molecule `CC(C)(C=C(C#N)C(=O)Nc1ccc(N2CC(N3CCN(c4ccc5c(c4)-c4nc(N6C(=O)OC[C@H]6C(F)F)cn4CCO5)CC3)C2)cc1)N1CC(C2COC2)C1` [Compound 314], the IC50 in test [1] (setting [3]) and in test [2] (setting [4]) was < 0.05 µM throughout.

As for `CC=C(C#N)C(=O)Nc1cnc(N2CC(N3CCN(c4ccc5c(c4)-c4nc(N6C(=O)OC[C@H]6C(F)F)cn4CCO5)CC3)C2)nc1` [Compound 272], the IC50 in test [1] (setting [3]) and in test [2] (setting [4]) was < 0.05 µM in each case.

On to `C=CC(=O)Nc1ccc(N2CC(/C=C/c3ccc4c(c3)-c3nc(N5C(=O)OC[C@H]5C(F)F)cn3CCO4)C2)cc1` [Compound 208], for which the results for the IC50 in test [1] (setting [3]) and in test [2] (setting [4]) were 0.05 to 0.1 µM and < 0.05 µM, respectively.

`C=CC(=O)N1CC(N2CC[C@@H](CN3CCN(c4ccc5c(c4)-c4nc(N6C(=O)OC[C@H]6C(F)F)cn4CCO5)CC3)C2)C1` [Compound 87]: the IC50 was determined as 0.318 µM in test [1] (setting [5]) and 0.037 µM in test [2] (setting [6]).

`Cc1nc(-c2cn3c(n2)-c2cc(N4CCN(C5CN(c6ccc(NC(=O)C(C#N)=CC(C)(C)NC(=O)OC(C)(C)C)cc6F)C5)CC4)ccc2OCC3)n(C(C)C)n1` [Compound 374]: the IC50 in test [1] (setting [3]) and in test [2] (setting [4]) was < 0.05 µM each time.

On to `CC(C)(O)C=C(C#N)C(=O)Nc1cnc(N2CC(N3CCN(c4ccc5c(c4)-c4nc(N6C(=O)OC[C@H]6C(F)F)cn4CCO5)CC3)C2)nc1` [Compound 266], for which the IC50 in test [1] (setting [3]) and in test [2] (setting [4]) was < 0.05 µM throughout.

On to `CC#CC(=O)N1CCc2cc(N3CC(N4CCN(c5ccc6c(c5)-c5nc(N7C(=O)OC[C@H]7C(F)F)cn5CCO6)CC4)C3)ccc21` [Compound 165], for which the 50% inhibitory concentration (IC50) in test [1] (setting [5]) was determined as 0.03 µM; in test [2] (setting [6]) it was 0.0034 µM.

In the case of `C=CC(=O)Nc1ccc(N2CC3(CCN(c4ccc5c(c4)-c4nc(N6C(=O)OC[C@H]6C(F)F)cn4CCO5)CC3)C2)cc1` [Compound 18], the IC50 in test [1] (setting [5]) was determined as 0.068 µM; in test [2] (setting [6]) it was 0.025 µM.

With `C=CC(=O)Nc1ccc(N2CC(N3CCN(c4ccc5c(c4)-c4nc(N6C(=O)OC[C@H]6C(F)F)cn4CCO5)CC3)C2)cc1C(F)(F)F` [Compound 142], the IC50 in test [1] (setting [5]) stood at 0.0083 µM; in test [2] (setting [6]), 0.0005 µM.

As for `CC(C)(O)C=C(C#N)C(=O)Nc1ccc(N2CC(N3CCN(c4ccc5c(c4)-c4nc(N6C(=O)OC[C@H]6C(F)F)cn4CCO5)CC3)C2)nc1` [Compound 248], the IC50 in test [1] (setting [3]) and in test [2] (setting [4]) was < 0.05 µM in each case.

In the case of `CC1(C=C(C#N)C(=O)Nc2ccc(N3CC(N4CCN(c5ccc6c(c5)-c5nc(N7C(=O)OC[C@H]7C(F)F)cn5CCO6)CC4)C3)cc2)CCC1` [Compound 390], the IC50 in test [1] (setting [3]) and in test [2] (setting [4]) was < 0.05 µM throughout.

With `C=CC(=O)Nc1ccc(CN2CC3(C2)CN(c2ccc4c(c2)-c2nc(N5C(=O)OC[C@H]5C(F)F)cn2CCO4)C3)cc1` [Compound 40], the figures for the IC50 in test [1] (setting [5]) and in test [2] (setting [6]) were 0.162 µM and 0.034 µM, respectively.

Regarding `COC1(C=C(C#N)C(=O)Nc2ccc(N3CC(N4CCN(c5ccc6c(c5)-c5nc(N7C(=O)OC[C@H]7C(F)F)cn5CCO6)CC4)C3)cc2)CC1` [Compound 282], the IC50 in test [1] (setting [3]) and in test [2] (setting [4]) was < 0.05 µM throughout.

In the case of `C=CC(=O)Nc1ccc(N2CC(N3CCN(c4ccc5c(c4)-c4nc(N6C(=O)OC[C@H]6C(F)F)cn4CCO5)CC3)C2)c(C#N)c1` [Compound 172], the IC50 in test [1] (setting [5]) was determined as 0.0036 µM; in test [2] (setting [6]), 0.0002 µM.

With `N#CC(=CC1(N)CC1)C(=O)Nc1cnc(N2CC(N3CCN(c4ccc5c(c4)-c4nc(N6C(=O)OC[C@H]6C(F)F)cn4CCO5)CC3)C2)nc1` [Compound 271], the IC50 in test [1] (setting [3]) and in test [2] (setting [4]) was < 0.05 µM each time.

For the molecule `C=CC(=O)N1CCc2cc(N3CC(N4CCN(c5ccc6c(c5)-c5nc(N7C(=O)OC[C@H]7C(F)F)cn5CCO6)CC4)C3)ccc21` [Compound 134], the IC50 in test [1] (setting [5]) was determined as 0.0027 µM; in test [2] (setting [6]) it was 0.0002 µM.
